# Test results taken from patent US20240343740A1, “MACROCYCLIC GLUCAGON-LIKE PEPTIDE 1 RECEPTOR AGONISTS” (Eli Lilly and Company, priority 2021, published 2024).
# Legend:
# human GLP-1R [1] = target: T1, human GLP-1R (Homo sapiens, UniProt P43220); test: Human GLP-1 Receptor HEK293 cell cAMP assay, 104 fmol/mg GLP-1R expression density; assay type: cell-based; parameters: expressed in transfected cells; host or cells: HEK293 clonal cell line; conditions: HEK293 cell line with 104 fmol/mg expression density of GLP-1R; for EC50: geometric mean, read-out: EC50 nM (SEM, n), intracellular cAMP response, relative EC50; for Emax: percent of maximal response to GLP-1(7-36)NH2, arithmetic mean, read-out: Emax % (SEM, n), intracellular cAMP response
# T1 sequence (P43220 24-463): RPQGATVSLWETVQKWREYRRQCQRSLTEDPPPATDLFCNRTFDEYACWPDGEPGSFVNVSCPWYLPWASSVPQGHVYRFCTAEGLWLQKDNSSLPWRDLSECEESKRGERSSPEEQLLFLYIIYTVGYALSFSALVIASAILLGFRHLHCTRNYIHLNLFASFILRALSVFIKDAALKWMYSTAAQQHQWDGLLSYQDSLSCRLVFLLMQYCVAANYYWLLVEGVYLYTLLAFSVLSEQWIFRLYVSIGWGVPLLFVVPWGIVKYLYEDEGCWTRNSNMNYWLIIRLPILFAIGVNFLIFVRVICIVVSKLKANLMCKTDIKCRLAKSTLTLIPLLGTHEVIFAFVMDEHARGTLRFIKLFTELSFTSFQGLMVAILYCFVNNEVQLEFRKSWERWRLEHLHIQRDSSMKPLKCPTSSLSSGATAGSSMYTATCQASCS
# Experimental: (§1) Human GLP-1 Receptor HEK293 Cell cAMP Assay
# (§2) GLP-1 Receptor functional activity is determined using cAMP formation in an HEK293 clonal cell line expressing human GLP-1R (NCBI accession number NP_002053) at an expression density of 581±94 (n=6) and 104±12 (n=5) fmol/mg protein (determined using [^125I]GLP-1(7-36)NH2 homologous competition binding analysis). The hGLP-1R receptor expressing cells are treated with compound (20 point concentration-response curve in DMSO, 2.75-fold Labcyte Echo direct dilution, 384 well plate Corning Cat #3570) in DMEM (Gibco Cat #31053) supplemented with 1× GlutaMAX™ (Gibco Cat #35050), 0.1% bovine casein (Sigma C4765-10ML), 250 μM IBMX (3-Isobutyl-1-methylxanthine, Acros Cat #228420010) and 20 mM HEPES (Gibco Cat #15630) in a 20 μL assay volume (final DMSO concentration is 0.5%). After a 30 min incubation at 37° C., the resulting increase in intracellular cAMP is quantitatively determined using the CisBio cAMP Dynamic 2 HTRF Assay Kit (62AM4PEJ). Briefly, cAMP levels within the cell are detected by adding the cAMP-d2 conjugate in cell lysis buffer (10 μL) followed by the antibody anti-cAMP-Eu^3+-Cryptate, also in cell lysis buffer (10 μL). The resulting competitive assay is incubated for at least 60 min at RT, then detected using a PerkinElmer Envision® instrument with excitation at 320 nm and emission at 665 nm and 620 nm. Envision units (emission at 665 nm/620 nm*10,000) are inversely proportional to the amount of cAMP present and are converted to nM cAMP per well using a cAMP standard curve. The amount of cAMP generated (nM) in each well is converted to a percent of the maximal response observed with human GLP-1(7-36)NH2. A relative EC50 value and percent top (Emax) are derived by non-linear regression analysis using the percent maximal response vs. the concentration of compound added, fitted to a four-parameter logistic equation.
# human GLP-1R [2] = target: T1, human GLP-1R; test: Human GLP-1 Receptor HEK293 cell cAMP assay, 581 fmol/mg GLP-1R expression density; assay type: cell-based; parameters: expressed in transfected cells; host or cells: HEK293 clonal cell line; conditions: HEK293 cell line with 581 fmol/mg expression density of GLP-1R; for EC50: geometric mean, read-out: EC50 nM (SEM, n), intracellular cAMP response, relative EC50; for Emax: percent of maximal response to GLP-1(7-36)NH2, arithmetic mean, read-out: Emax % (SEM, n), intracellular cAMP response
# Experimental: as §1, §2
EC50 (human GLP-1R [1]) [nM],Emax (human GLP-1R [1]) [%],EC50 (human GLP-1R [2]) [nM],Emax (human GLP-1R [2]) [%],Structure (SMILES)
133,95.6,35.1,111,"N#Cc1ccc2cc1CCOCc1cc(ccc1Cc1nc3ccc(C(=O)O)cc3n1C[C@@H]1CCO1)-c1cccc(n1)OC2 [Example 21, (S)-2-((5^4-Cyano-3,8-dioxa-2(2,6)-pyridina-1,5(1,3)-dibenzenacyclononaphane-1^4-yl)methyl)-1-(oxetan-2-ylmethyl)-1H-benzo[d]imidazole-6-carboxylic acid]"
10.6,80.9,2.86,112,"COc1cc(C(=O)O)cc2c1nc(Cc1cc(C)c3cc1OCCCc1cc(F)ccc1COc1cccc-3n1)n2C[C@@H]1CCO1 [Example 22, (S)-4-Methoxy-2-((1^6-methyl-5^4-(fluoro)-3,9-dioxa-2(2,6)-pyridina-1(1,3),5(1,2)-dibenzenacyclononaphane-1^4-yl)methyl)-1-(oxetan-2-ylmethyl)-1H-benzo[d]imidazole-6-carboxylic acid]"
344,83.7,69.3,106,"COc1cc(C(=O)O)cc2c1nc(Cc1ccc3cc1OCCCc1cc(C#N)ccc1COc1cccc-3n1)n2Cc1ncco1 [Example 23, 2-((5^4-Cyano-3,9-dioxa-2(2,6)-pyridina-1(1,3),5(1,2)-dibenzenacyclononaphane-1^4-yl)methyl)-4-methoxy-1-(oxazol-2-ylmethyl)-1H-benzo[d]imidazole-6-carboxylic acid]"
6.6,89.6,2.34,116,"COCCOc1cc(C(=O)O)cc2c1nc(Cc1ccc3cc1OCCCc1cc(C#N)ccc1COc1cccc-3n1)n2C[C@@H]1CCO1 [Example 24, (S)-2-((5^4-Cyano-3,9-dioxa-2(2,6)-pyridina-1(1,3),5(1,2)-dibenzenacyclononaphane-1^4-yl)methyl)-4-(2-methoxyethoxy)-1-(oxetan-2-ylmethyl)-1H-benzo[d]imidazole-6-carboxylic acid]"
703,62.1,317,98.3,"O=C(O)c1ccc2nc(Cc3ccc4cc3OCCCc3cc(CO)ccc3COc3cccc-4n3)n(C[C@@H]3CCO3)c2c1 [Example 25, (S)-2-((5^4-(Hydroxymethyl)-3,9-dioxa-2(2,6)-pyridina-1(1,3),5(1,2)-dibenzenacyclononaphane-1^4-yl)methyl)-1-(oxetan-2-ylmethyl)-1H-benzo[d]imidazole-6-carboxylic acid]"
5.64,91.3,1.66,116,"COc1cc(C(=O)O)cc2c1nc(Cc1cc(C)c3cc1OCCCc1nc(C(F)(F)F)ccc1COc1cccc-3n1)n2C[C@@H]1CCO1 [Example 26, (S)-4-Methoxy-2-((1^6-methyl-5^6-(trifluoromethyl)-3,9-dioxa-2(2,6),5(3,2)-dipyridina-1(1,3)-benzenacyclononaphane-1^4-yl)methyl)-1-(oxetan-2-ylmethyl)-1H-benzo[d]imidazole-6-carboxylic acid; 1,3,4,6,7,8-hexahydro-2H-pyrimido[1,2-a]pyrimidine]"
165,82.5,50.7,107,"COc1cc(C(=O)O)cc2c1nc(Cc1cc(C)c3cc1OCCCc1cnccc1COc1cccc-3n1)n2C[C@@H]1CCO1 [Example 27, (S)-4-Methoxy-2-((1^6-methyl-3,9-dioxa-2(2,6),5(4,3)-dipyridina-1(1,3)-benzenacyclononaphane-1^4-yl)methyl)-1-(oxetan-2-ylmethyl)-1H-benzo[d]imidazole-6-carboxylic acid]"
287,74.9,98.4,104,"O=C(O)c1ccc2nc(Cc3ccc4cc3OCCCc3cc(-c5cnn(CC6COC6)c5)ccc3COc3cccc-4n3)n(C[C@@H]3CCO3)c2c1 [Example 28, (S)-1-(Oxetan-2-ylmethyl)-2-((5^4-(1-(oxetan-3-ylmethyl)-1H-pyrazol-4-yl)-3,9-dioxa-2(2,6)-pyridina-1(1,3),5(1,2)-dibenzenacyclononaphane-1^4-yl)methyl)-1H-benzo[d]imidazole-6-carboxylic acid]"
562,59.2,262,92.4,"COc1ccc(-c2ccc3c(c2)CCCOc2cc(ccc2Cc2nc4ccc(C(=O)O)cc4n2C[C@@H]2CCO2)-c2cccc(n2)OC3)cn1 [Example 29, (S)-2-((5^4-(6-Methoxypyridin-3-yl)-3,9-dioxa-2(2,6)-pyridina-1(1,3),5(1,2)-dibenzenacyclononaphane-1^4-yl)methyl)-1-(oxetan-2-ylmethyl)-1H-benzo[d]imidazole-6-carboxylic acid]"
118,77.1,35.6,98.1,"O=C(O)c1ccc2nc(Cc3ccc4cc3OCCCc3cc(-c5cn[nH]c5)ccc3COc3cccc-4n3)n(C[C@@H]3CCO3)c2c1 [Example 30, (S)-2-((5^4-(1H-Pyrazol-4-yl)-3,9-dioxa-2(2,6)-pyridina-1(1,3),5(1,2)-dibenzenacyclononaphane-1^4-yl)methyl)-1-(oxetan-2-ylmethyl)-1H-benzo[d]imidazole-6-carboxylic acid]"
251,88.8,70.1,104,"Cn1nccc1-c1ccc2c(c1)CCCOc1cc(ccc1Cc1nc3ccc(C(=O)O)cc3n1C[C@@H]1CCO1)-c1cccc(n1)OC2 [Example 31, (S)-2-((5^4-(1-Methyl-1H-pyrazol-5-yl)-3,9-dioxa-2(2,6)-pyridina-1(1,3),5(1,2)-dibenzenacyclononaphane-1^4-yl)methyl)-1-(oxetan-2-ylmethyl)-1H-benzo[d]imidazole-6-carboxylic acid]"
530,70.9,178,98.9,"Cn1ncc(-c2ccc3c(c2)CCCOc2cc(ccc2Cc2nc4ccc(C(=O)O)cc4n2C[C@@H]2CCO2)-c2cccc(n2)OC3)n1 [Example 32, (S)-2-((5^4-(2-Methyl-2H-1,2,3-triazol-4-yl)-3,9-dioxa-2(2,6)-pyridina-1(1,3),5(1,2)-dibenzenacyclononaphane-1^4-yl)methyl)-1-(oxetan-2-ylmethyl)-1H-benzo[d]imidazole-6-carboxylic acid]"
111,85,40.8,112,"CS(=O)(=O)c1ccc(-c2ccc3c(c2)CCCOc2cc(ccc2Cc2nc4ccc(C(=O)O)cc4n2C[C@@H]2CCO2)-c2cccc(n2)OC3)cc1 [Example 33, (S)-2-((5^4-(4-(Methylsulfonyl)phenyl)-3,9-dioxa-2(2,6)-pyridina-1(1,3),5(1,2)-dibenzenacyclononaphane-1^4-yl)methyl)-1-(oxetan-2-ylmethyl)-1H-benzo[d]imidazole-6-carboxylic acid]"
616,82.3,167,110,"COc1cc(-c2ccc3c(c2)CCCOc2cc(ccc2Cc2nc4ccc(C(=O)O)cc4n2C[C@@H]2CCO2)-c2cccc(n2)OC3)ccn1 [Example 34, (S)-2-((5^4-(2-Methoxypyridin-4-yl)-3,9-dioxa-2(2,6)-pyridina-1(1,3),5(1,2)-dibenzenacyclononaphane-1^4-yl)methyl)-1-(oxetan-2-ylmethyl)-1H-benzo[d]imidazole-6-carboxylic acid]"
385,88.1,95.8,112,"O=C(O)c1ccc2nc(Cc3ccc4cc3OCCCc3cc(-c5cnn(C6CC6)c5)ccc3COc3cccc-4n3)n(C[C@@H]3CCO3)c2c1 [Example 35, (S)-2-((5^4-(1-Cyclopropyl-1H-pyrazol-4-yl)-3,9-dioxa-2(2,6)-pyridina-1(1,3),5(1,2)-dibenzenacyclononaphane-1^4-yl)methyl)-1-(oxetan-2-ylmethyl)-1H-benzo[d]imidazole-6-carboxylic acid]"
